# Literature values, collected in patent US20220001038A1, “CONJUGATES FOR DETECTION OF AXILLARY LYMPH NODE METASTASES” (H. LEE MOFFITT CANCER CENTER AND RESEARCH INSTITUTE, INC., priority 2017, published 2022).
# Tested on: hCA IX and XII
compound,measurement,value
[N-]=[N+]=NCCCCCCOc1ccc(-c2nn(-c3ccccc3)cc2-c2nc3ccccc3[nH]2)cc1 [compound 6],affinity/selectivity for CAIX and CAXII (in words),inhibitor with hCA IX and XII selectivity
